Source: paper PMC11200976, “Pitavastatin Calcium Confers Fungicidal Properties to Fluconazole by Inhibiting Ubiquinone Biosynthesis and Generating Reactive Oxygen Species” (Antioxidants, 2024)
Read-outs that look alike come from different tables or passages of the source.

Legend:
[1] = tested on: C. albicans; assay: Determination of MFC; format: cell-based, Candida albicans; conditions: for MFC: Candida albicans
Description: The determination of MFC followed the previously described method. In brief, a tested drug at a concentration two times higher than the final concentration was diluted in a two-fold serial dilution manner across ten columns of the plate, with each well containing 100 μL of the drug. Subsequently, 100 μL of C. albicans cultures (1 × 10^4 cells/mL) were transferred into wells with and without any drugs as the control. Following incubation at 30 °C for 48 h, a 200 μL aliquot per well was removed and evenly spread on SDA plates, which were then incubated at 30 °C for 48 h. The MFC value was determined as the lowest drug concentration at which 99.9% of fungal colonies were eradicated compared to the control group.

[2] = tested on: Candida glabrata clinical isolates; assay: Supra-MIC growth (SMG) of FLC in clinical isolates; format: cell-based; conditions: n = 4 isolates
[3] = tested on: C. albicans clinical isolates; assay: Supra-MIC growth (SMG) of FLC in clinical isolates; format: cell-based, Candida albicans; conditions: n = 7 isolates
[4] = tested on: C. albicans; assay: Murine invasive C. albicans infections (C57BL/6 mice); format: in vivo, Candida albicans
Description: . Before commencing drug therapy, the mice were inoculated with 200 μL of PBS containing 2 × 10^5 C. albicans cells via the lateral tail vein. […]. The mice were weighed, and their weights were recorded every three days while their survival was monitored daily for 30 days. Two-tailed unpaired t-tests were employed to assess the weight changes. Kaplan–Meier analyses were employed to assess the survival probabilities, while log-rank testing was utilized to determine the statistical significance of the survival curves. In the case of fungal burden analyses, the mice were closely monitored twice daily for any indications of infection and were euthanized humanely upon reaching the predetermined endpoints. Subsequently, each mouse’s spleen, liver, and kidneys were harvested and homogenized in sterile PBS after sacrifice, followed by streaking onto SDA agar plates. Following a 48 h incubation period, the colonies were quantified, and colony-forming units (CFUs) were calculated. For histopathological analysis, kidney tissues from mice infected for 6 or 10 days were procured and fixed in buffered formalin. Subsequently, the tissues were embedded in paraffin, sectioned into 3–4 μm slices, and subjected to PAS staining using established protocols. All experimental procedures involving animals were approved by the Tongji University Animal Care Committee (No.: TJAA00322101).

[5] = tested on: C. albicans; assay: MIC assays (CLSI M27 broth microdilution); format: cell-based, Candida albicans; conditions: for MIC: Candida albicans
Description: The MIC assays for C. albicans were conducted following the broth microdilution protocol outlined by the Clinical and Laboratory Standards Institute (CLSI) protocols (M27, 4th edition). In brief, FDA-approved drugs were diluted in 96-well plates at two-fold the final concentration, with 4 μg/mL FLC. This dilution was combined with the cell suspension with a concentration of 1 × 10^3 cells/mL. The plates were incubated at a temperature of 30 °C for 48 h without agitation.

[6] = tested on: Candida guilliermondii clinical isolates; assay: Supra-MIC growth (SMG) of FLC in clinical isolates; format: cell-based; conditions: n = 7 isolates
[7] = tested on: C. albicans; assay: Spotting assay; format: cell-based, Candida albicans; conditions: 4 μM PIT; compared to wild-type strain and other heterozygous gene deletion mutants
Description: The spotting assays were conducted following the previously described method. In summary, C. albicans cultures were adjusted to a cell density of 1 × 10^7 cells/mL using a hemacytometer. Subsequently, the cultures were serially diluted 1:10 and spotted onto a designated YPD solid medium containing specified concentrations of compounds. Following incubation at 30 °C for 48 h, photographs capturing the cell growth were taken, and the assays were replicated thrice.

[8] = tested on: ERG1, ERG11, and ERG251 genes; format: cell-based, Candida albicans; conditions: 2 μM PIT alone, 8 h
[9] = tested on: C. albicans; assay: Broth microdilution assay of synergistic lethality with 4 μg/mL FLC (recovery on drug-free YPD); format: cell-based, Candida albicans
[10] = tested on: C. albicans SC5314, SN152, cmp1-aid∆/cmp1-aid∆, and PADH1-UPC2 strains; assay: FLC disk diffusion assays (25 μg FLC disk, 5 μM adjuvant); format: cell-based, Candida albicans; conditions: PADH1-UPC2
Description: Yeast cells were cultured overnight at a temperature of 30 °C, and the resulting cell suspension was diluted to a concentration of 1 × 10^7 cells/mL in phosphate-buffered saline (PBS). At a concentration of 5 μM, the drugs were individually added to YPD plates for disk assays using a 25 μg FLC disk (6 mm, Liofilchem, Roseto degli Abruzzi, Italy). The plates were then incubated at 30 °C for 48 h. Subsequently, the disk was transferred to a drug-free YPD plate, which was incubated at 30 °C for 24 h and photographed.

[11] = Acute toxicity, Up-and-Down procedure (OECD 425), intraperitoneal; format: in vivo; conditions: C57BL/6, mouse, in vivo, ip, mice
Description: (§1) Following a previously described methodology, the intraperitoneal route was employed in adult mice. In brief, the primary test involved a sequential administration of doses at intervals of at least 48 h, with one mouse being dosed at a time. Initially, a dose below LD50 was administered intraperitoneally to a mouse. If the mouse survived, the subsequent mouse would receive 1.3 times the initial dose. Conversely, if the mouse died, the subsequent mouse would receive a dose decreased by 1.3 times the initial dose. Each mouse was monitored for 48 h before determining the subsequent mouse’s dosage and administration. The experiment was terminated upon five “survive or die” reversals within a consecutive set of six animals tested. Subsequently, the LD50 and its corresponding confidence interval were computed based on the conditions observed in all mice after the experiment.

[12] = tested on: C. albicans; assay: Dose–matrix titration assays (synergy, with YPD recovery plates); format: cell-based, Candida albicans; conditions: FLC ≤4 μg/mL; YPD, 30 °C, 48 h
Description: The synergistic effects of drugs were conducted following the same procedure as the MIC assays. Specifically, 50 μL of drug A was distributed through two-fold serial dilution across seven plate columns. Subsequently, 50 μL of drug B was distributed in a two-fold serial dilution manner along seven rows of the plate. Furthermore, 100 μL of C. albicans cultures, adjusted to a density of 1 × 10^3 cells/mL, was dispensed into wells containing drugs and one control well devoid of any drugs. Before the 48 h OD600 readings, the plates were subjected to meticulous agitation to ensure the deposition of a representative 2 μL aliquot from each well onto newly prepared YPD recovery plates, thereby facilitating the evaluation of cellular recuperation following drug treatments. The recovery plates were subsequently incubated at a temperature of 30 °C for a duration ranging from 24 to 48 h, after which they were photographed. The experimental procedures were conducted in triplicate to ensure reliability and reproducibility.

[13] = tested on: mice; assay: Acute toxicity, Up-and-Down procedure (OECD 425), intraperitoneal; format: in vivo
Description: as §1

## OC(Cn1cncn1)(Cn1cncn1)c1ccc(F)cc1F [FLC, Fluconazole]
[1]; absence of PIT
  MFC: > 64 µg/mL
[1]; in the presence of PIT (1 μM)
  MFC: 2 µg/mL
[1]; in the presence of 1 μM PIT
  ratio of MFC to MIC of FLC: 4
[2]; FLC alone
  SMG value of FLC: 0.3169
[2]; in combination with PIT, p = 0.0442
  SMG value of FLC: 0.0031
[3]; FLC alone
  SMG value of FLC: 0.1203
[3]; in combination with PIT, p = 0.002
  SMG value of FLC: 0
[4]; after 1 mg/kg FLC ip for 3 days, 6 or 10 days after infection
  kidney fungal burden in cmp1-aidΔ/cmp1-aidΔ infected group compared to cmp1Δ/cmp1Δ infected group: notably greater
[4]; clinical isolate 283, FLC 4 mg/kg, PIT 3 mg/kg, 30-day observation period
  mortality rate: 50%
[4]; clinical isolate 283, FLC 4 mg/kg, PIT 3 mg/kg, ten mice per group
  average weight loss on the 15th day of infection: 1.16 ± 0.63 g
[5]; SEC14/sec14△, YPD + 0.5 μM PIT, read-out: MIC of FLC
  MIC: 1 µg/mL
[5]; SEC14/sec14△, YPD + 1 μM PIT, read-out: MIC of FLC
  MIC: 0.5 µg/mL
[5]; SEC14/sec14△, YPD, read-out: MIC of FLC
  MIC: 1 µg/mL
[5]; SN152, YPD, read-out: MIC of FLC
  MIC: 1 µg/mL
[5]; read-out: MIC of FLC, age3△/age3△, YPD + 0.5 μM PIT
  MIC: 0.25 µg/mL
[5]; read-out: MIC of FLC, age3△/age3△, YPD + 1 μM PIT
  MIC: 0.125 µg/mL
[6]; FLC alone
  SMG value of FLC: 0.0667
[6]; in combination with PIT, p = 0.0362
  SMG value of FLC: 0.0166

## O=C(O)C[C@H](O)C[C@H](O)/C=C/c1c(C2CC2)nc2ccccc2c1-c1ccc(F)cc1 [PIT, pitavastatin calcium]
[1]; as low as
  concentration of PIT that renders FLC fungicidal: 1 µM
[7]
  susceptibility of HMG1/hmg1Δ, ERG8/erg8Δ and IDI1/idi1Δ mutants to PIT: more susceptible
[8]
  mRNA expression level of ERG1 gene, upregulation: 2 fold
  mRNA expression level of ERG11 gene, upregulation: 2 fold
  mRNA expression level of ERG251 gene, upregulation: 2 fold
[9]; with 4 μg/mL FLC, tested 100 μM to 0.1953 μM, 30 °C, 48 h
  synergistic lethal concentration (converts FLC from fungistatic to fungicidal): ≤ 6.25 µM
[10]; SC5314, SN152, cmp1-aid∆/cmp1-aid∆
  effect on FLC tolerance in FLC disk diffusion, all four strains: made FLC fungicidal
[5]; 100 μM exogenous ergosterol, SN152, MIC and spotting assays
  antifungal efficacy of PIT with exogenous ergosterol: negated
[5]; 100 μM exogenous mevalonate, SN152, MIC and spotting assays
  antifungal effects of PIT with exogenous mevalonate: mitigated
[5]; SEC14/sec14△, YPD, read-out: MIC of PIT
  MIC: 2 µM
[5]; SN152, YPD, read-out: MIC of PIT
  MIC: 2 µM
[5]; age3△/age3△, YPD, read-out: MIC of PIT
  MIC: 2 µM
[5]; control strain (wild-type), read-out: MIC of PIT
  MIC: 3.12 µg/mL
[5]; hac1△/hac1△, YPD, read-out: MIC of PIT
  MIC: 2 µM
[5]; hse1△/hse1△, YPD, read-out: MIC of PIT
  MIC: 2 µM
[5]; ire1△/ire1△, YPD, read-out: MIC of PIT
  MIC: 2 µM
[5]; mvb12△/mvb12△, YPD, read-out: MIC of PIT
  MIC: 2 µM
[5]; read-out: MIC of PIT, erg11∆/erg11∆ null mutant
  MIC: 0.195 µg/mL
[5]; snf7△/snf7△, YPD, read-out: MIC of PIT
  MIC: 2 µM
[5]; vps20△/vps20△, YPD, read-out: MIC of PIT
  MIC: 2 µM
[5]; vps22△/vps22△, YPD, read-out: MIC of PIT
  MIC: 2 µM
[5]; vps23△/vps23△, YPD, read-out: MIC of PIT
  MIC: 2 µM
[5]; vps28△/vps28△, YPD, read-out: MIC of PIT
  MIC: 2 µM
[5]; vps36△/vps36△, YPD, read-out: MIC of PIT
  MIC: 2 µM
[11]
  LD50 at 48 h: 104 mg/kg
[12]
  concentration that renders FLC fungicidal (no recovery on YPD solid medium): ≤ 3.125 µM

## polymyxin B sulfate
[9]; concentration of the compound that is synergistically lethal with 4 μg/mL FLC, C. albicans, recovery on drug-free YPD
  Synergistic lethal concentrations: 6.25 µM
[10]
  effect on FLC tolerance in FLC disk diffusion, PADH1-UPC2 strain: unsuccessful in reducing FLC tolerance
[13]
  LD50: 25 mg/kg
[12]
  concentration that renders FLC fungicidal (no recovery on YPD solid medium): ≤ 3.125 µM
